Experiments:
small bowel T cells = test: In vitro IFNγ secretion, anti-CD3/CD28-activated small bowel T cells; type: cell-based; settings: T cells from HFD-fed WT mice, 72 hour; 5-ASA 0.1 mM; rosiglitazone 0.1, 1 and 10 μM
Protocol: To measure the effect of IFNγ on tight-junction gene expression, we treated MODE-K cells with recombinant mouse IFNγ (Biolegend). We purified bulk dendritic cells and T cells from murine small bowels and spleens using a negative selection DC or T cell isolation kit (Stem Cell Technologies). We plated T cells at 5×10^5 cells/well with plate-bound anti-CD3/CD28 (1 μg/ml, Biolegend). […] We collected supernatants for cytokine measurements after 72 hour incubation. […] After 24 hours, we washed the cells with PBS and co-cultured them (1×10^4 cells/well) with OVA323-339 peptide and OT-II splenic or small bowel T cells (5×10^4 cells/well) for 48 hours. Supernatants were collected at 48 hours for cytokine measurement. We measured serum cytokines by Luminex Multiplex cytokine assay (Millipore, run by the UHN Microarray Center), and quantified IL-10 and IFN-γ in supernatants of anti-CD3/CD28-stimulated splenocytes or bowel immune cells (Winer et al., 2009b) by ELISA (Biolegend).

gut epithelial barrier = settings: models of IBD (Di Paolo et al., 1996; Liu et al., 2009); cited from earlier work
[1] = test system: VAT T cells and M1 macrophages; test: Flow cytometry of VAT immune cells, HFD or HFD 5-ASA; type: in vivo, mice; settings: HFD vs HFD 5-ASA 1500 mg/kg/day, 16 weeks
Protocol: We isolated VAT-associated immune cells as previously described (Winer et al., 2009a).
(§1) We stained single cell suspensions for 30 min on ice with commercial antibodies. Flow cytometry antibodies including CD45.2 (104), CD3 (145-2C11), CD4 (GK1.5), CD8 (53-6.7), CD25 (PC61), γδTcR (GL3), Foxp3 (150D), IL-17 (TC11-18H10.1), IFNγ XMG1.2), α4β7 (DATK32), CCR9 (CW-1.2), CD11b (M1/70), F4/80 (BM8), CD11c (N418), CD206 (C068C2), Gr-1 (RB6-8C5), IL-7Rα (A7R34), B220 (RA3-6B2), Thy1.2 (30-H12), NKp46 (29A1.4), and Sca-1 (D7) were purchased from Biolegend. Intracellular staining was performed using a Foxp3 staining buffer kit (eBioscience). We acquired data on a Fortessa flow cytometer (BD Biosciences) and analyzed it with FlowJo software (Tree Star). We gated ILCs as described (Kirchberger et al., 2013).

[2] = test system: colon and small bowel lamina propria T cells; test: Flow cytometry of colon and small bowel lamina propria T cells, HFD or HFD 5-ASA; type: in vivo, mice; settings: HFD vs HFD 5-ASA 1500 mg/kg/day, 16 weeks
Text: Isolation of bowel immune cells. For isolation of small intestine lamina propria immune cells, we used the protocol described by Fritz et al (Fritz et al., 2012), and processed approximately 10 cm from the distal end of the small intestine (jejunum and ileum). For the isolation of colonic lamina propria immune cells, we used the protocol described by Geddes et al (Geddes et al., 2011). Following lamina propria isolations, we passed immune cells through 70 μm strainers, and used them for flow cytometry.
as §1

[3] = HPLC of 5-ASA in serum and tissues with internal 4-ASA standard; type: in vivo, mice; settings: mouse, colon and small bowel relative to serum, oral
Protocol: We cut frozen tissues and homogenized them in 80% methanol (30 mg/mL) on ice. We spiked 100 μL aliquots with 4-ASA used as internal standard (200 ng), and 400 μL 80% methanol were added. For plasma, we thawed samples from −80° C. at room temperature. 75 μL plasma were spiked with 4-ASA used as internal standard (200 ng) and mixed with 300 μL of methanol for 5 minutes (vortex). Samples were centrifuged (20,000×g, 15 minutes, 4° C.). Supernatants were separated from the pellets and taken to dryness under nitrogen gas in the fumehood. We then reconstituted the dry residues in 200 μL of mobile phase, vortexed for 1 minute and centrifuged at 20,000×g for 15 minutes. The supernatants were transferred to autosampler vials fitted with inserts and sealed caps. Aliquots of the solution were injected into HPLC for analysis.
We performed high performance liquid chromatography using a Dionex Ultimate 3000 system equipped with a binary pump, a built-in autosampler, a photodiode array and a RF 2000 fluorescence detector. […] The analytes were monitored by fluorescence (excitation: 337 nm and emission: 432 nm) and by (UV235 nm). We analyzed the chromatograms produced using Chromeleon version 6.8 software.

gut bacteria = test: Gut microbiome sequencing; type: in vivo; settings: HFD 5-ASA-fed mice
Protocol: We amplified the V4 hypervariable region of the 16S rRNA gene using a universal forward sequencing primer and a uniquely barcoded reverse sequencing primer to allow for multiplexing (Caporaso et al., 2012). Primers contained an adapter sequence to bind the amplicons to the Illumina flow cell. PCR-based library construction was performed in triplicate 25 μl solutions containing 1×KAP[…] Robust HotStart ReadyMix, 600 nM each of primer, and 1 μl of DNA template. For every PCR reaction sterile dH2O was used as a negative control to ensure no contaminating DNA was present. PCR conditions were 95° C. for 3 min, followed by 18 cycles of 95° C. for 15 s, 58° C. for 15 s, 72° C. for 15 s and were completed at 72° C. for 5 min. All PCR reactions were run on a 1% agarose gel to visualize the amplification and approximate DNA quantity. Individual barcoded samples from the triplicates were pooled by approximately even concentrations to create the final library. The final library was purified using 0.8 volumes of Agencourt AMPure XP beads (Beckman Coulter, Indianapolis, Ind.) according to the manufacturer's protocol and quantified using the Qubit Fluorometer. The final library was prepared according to the MiSeq user guide, diluted to a concentration of 7 pM and combined with a 5% PhiX control. Sequencing was performed using the V2 (150 bp×2) chemistry and sequenced on the Illumina MiSeq (Illumina, San Diego, Calif.).

[4] = test system: spleen and blood immune cells, serum cytokines; test: Systemic immune function during HFD feeding (spleen, blood, serum cytokines); type: in vivo, mice; settings: HFD vs HFD 5-ASA
Protocol: as §1
We measured serum cytokines by Luminex Multiplex cytokine assay (Millipore, run by the UHN Microarray Center), and quantified IL-10 and IFN-γ in supernatants of anti-CD3/CD28-stimulated splenocytes or bowel immune cells (Winer et al., 2009b) by ELISA (Biolegend).

Nc1ccc(O)c(C(=O)O)c1 [5-ASA, 5-aminosalicylic acid]
IFNγ production (small bowel T cells): significantly reduced
intactness of the gut epithelial barrier (gut epithelial barrier): beneficial effects
Tregs in VAT [1]: increasing
percentages of IFNγ-secreting CD8+ T cells in VAT [1]: reducing
percentages of M1 inflammatory macrophages in VAT [1]: reducing
percentages of Th1 cells in VAT [1]: reducing
IFNγ-secreting CD8+ T cells ([2]; colon and small bowel): reduction
IL-17-secreting γδ T cells ([2]; colon and small bowel): reduction
Th1 cells ([2]; colon and small bowel): reduction
Tregs ([2]; small bowel): significant increase
Kp [3]: ~20
Clostridiales (gut bacteria): increased
Firmicutes (gut bacteria): increased
abundance of Ruminococcaceae (gut bacteria): increased
bacterial diversity (gut bacteria): increased
circulating immune cell polarity in the blood ([4]; 14 weeks): no effects
immune cell populations in the spleen ([4]; 14 weeks): no effects
serum levels of cytokines ([4]; Luminex, 23 cytokines, 14 weeks): mostly unchanged
serum RANTES ([4]; Luminex, 14 weeks): significant but small increase
serum TNFα ([4]; Luminex, 14 weeks): reduction
stimulated spleen immune cell cytokine secretion ([4]; cultured splenocytes, anti-CD3/CD28 48 hrs): no effects

Reference: patent publication US20180193361A1, “GUT ANTI-INFLAMMATORY AGENTS FOR REGULATION OF HIGH BLOOD GLUCOSE LEVELS” (UNIVERSITY HEALTH NETWORK, priority 2015, published 2018)
